Assay results as given in patent publication US12077503B2, “Substituted cyclic amides and their use as herbicides” (FMC CORPORATION, priority 2015, dated 2024).

What was measured:
Format in all cases: in vivo
[1] = tested on: barnyardgrass (Echinochloa crus-galli); test: Test G Pre-Emergence Protocol; conditions: Echinochloa crus-galli, pre-emergence, 312 h, evaluated after 13 days; for pest or weed control at 15.625 g/ha: 15.625 g ai/ha, read-out: Barnyard grass damage rating (100=total damage to plant; 0=no damage to plant); for pest or weed control at 62.5 g/ha: 62.5 g ai/ha, 100=total damage to plant, 0=no damage to plant, read-out: plant damage rating, Barnyardgrass; for pest or weed control at 250 g/ha: 250 g ai/ha, read-out: Barnyardgrass damage rating (100=total damage to plant; 0=no damage to plant)
How it was run: (§1)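 Glasshouse pre-emergence test: soil-sown seeds, sprayed after 1 d at 15.625, 62.5 or 250 g/ha. Conditions 24/16° C day/night, 14 h light, 65% humidity, watering twice daily. Rating 13 d post-spray (100 = total damage).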

corn (Zea mays) [2] = test: Test G Pre-Emergence Protocol; conditions: Zea mays, pre-emergence, 312 h, evaluated after 13 days; for plant injury at 15.625 g/ha: 15.625 g ai/ha; for plant injury at 15.625 g/ha / plant injury at 250 g/ha: read-out: Corn damage rating (100=total damage to plant; 0=no damage to plant); for plant injury at 62.5 g/ha: 62.5 g ai/ha, 100=total damage to plant, 0=no damage to plant, read-out: plant damage rating, Corn; for plant injury at 250 g/ha: 250 g ai/ha
How it was run: as §1

[3] = tested on: giant foxtail (Setaria faberi); test: Test G Pre-Emergence Protocol; conditions: Setaria faberi, pre-emergence, 312 h, evaluated after 13 days; for pest or weed control at 15.625 g/ha: 15.625 g ai/ha; for pest or weed control at 15.625 g/ha / pest or weed control at 250 g/ha: read-out: Foxtail, Giant damage rating (100=total damage to plant; 0=no damage to plant); for pest or weed control at 62.5 g/ha: 62.5 g ai/ha, 100=total damage to plant, 0=no damage to plant, read-out: plant damage rating, Foxtail, Giant; for pest or weed control at 250 g/ha: 250 g ai/ha
How it was run: as §1

[4] = tested on: ivy-leaved morning glory (Ipomoea hederacea); test: Test G Pre-Emergence Protocol; conditions: Ipomoea, pre-emergence, 312 h, evaluated after 13 days; for pest or weed control at 15.625 g/ha: 15.625 g ai/ha, read-out: Morning-glory, Ivy-leaved damage rating (100=total damage to plant; 0=no damage to plant); for pest or weed control at 62.5 g/ha: 62.5 g ai/ha, 100=total damage to plant, 0=no damage to plant, read-out: plant damage rating, Morningglory, Ivy-leaved; for pest or weed control at 250 g/ha: 250 g ai/ha, read-out: Morningglory, Ivy-leaved damage rating (100=total damage to plant; 0=no damage to plant)
How it was run: as §1

[5] = tested on: redroot pigweed (Amaranthus retroflexus); test: Test G Pre-Emergence Protocol; conditions: Amaranthus retroflexus, pre-emergence, 312 h, evaluated after 13 days; for pest or weed control at 15.625 g/ha: 15.625 g ai/ha; for pest or weed control at 15.625 g/ha / pest or weed control at 250 g/ha: read-out: Pigweed, Redroot damage rating (100=total damage to plant; 0=no damage to plant); for pest or weed control at 62.5 g/ha: 62.5 g ai/ha, 100=total damage to plant, 0=no damage to plant, read-out: plant damage rating, Pigweed, Redroot; for pest or weed control at 250 g/ha: 250 g ai/ha
How it was run: as §1

[6] = tested on: velvetleaf (Abutilon theophrasti); test: Test G Pre-Emergence Protocol; conditions: Abutilon theophrasti, pre-emergence, 312 h, evaluated after 13 days; for pest or weed control at 15.625 g/ha: 15.625 g ai/ha; for pest or weed control at 15.625 g/ha / pest or weed control at 250 g/ha: read-out: Velvetleaf damage rating (100=total damage to plant; 0=no damage to plant); for pest or weed control at 62.5 g/ha: 62.5 g ai/ha, 100=total damage to plant, 0=no damage to plant, read-out: plant damage rating, Velvetleaf; for pest or weed control at 250 g/ha: 250 g ai/ha
How it was run: as §1

[7] = tested on: barnyardgrass (Echinochloa crus-galli); test: Test G Post-Emergence Protocol; conditions: Echinochloa crus-galli, post-emergence, 312 h; for pest or weed control at 15.625 g/ha: 15.625 g ai/ha, evaluated after 13 days (100=total damage to plant; 0=no damage to plant), read-out: Barnyardgrass damage rating; for pest or weed control at 62.5 g/ha: 62.5 g ai/ha, read-out: Barnyardgrass damage rating (100=total damage to plant; 0=no damage to plant); for pest or weed control at 62.5 g/ha / pest or weed control at 250 g/ha: evaluated after 13 days; for pest or weed control at 250 g/ha: 250 g ai/ha, read-out: damage to plant, Barnyardgrass (100=total damage to plant; 0=no damage to plant)
How it was run: (§2)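 Damage was rated 13 days after treatment from 0 (none) to 100 (plant killed). Compound was applied as a spray at 15.625, 62.5 or 250 g/ha in 50:50 acetone/water containing 0.5% Tween 20, onto 8-day-old potted plants kept in a glasshouse (24/16 °C, 14 h light, 65% humidity).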

corn (Zea mays) [8] = test: Test G Post-Emergence Protocol; conditions: Zea mays, post-emergence, 312 h; for plant injury at 15.625 g/ha: 15.625 g ai/ha, evaluated after 13 days (100=total damage to plant; 0=no damage to plant), read-out: Corn damage rating; for plant injury at 62.5 g/ha: 62.5 g ai/ha, read-out: Corn damage rating (100=total damage to plant; 0=no damage to plant); for plant injury at 62.5 g/ha / plant injury at 250 g/ha: evaluated after 13 days; for plant injury at 250 g/ha: 250 g ai/ha, read-out: damage to plant, Corn (100=total damage to plant; 0=no damage to plant)
How it was run: as §2

[9] = tested on: giant foxtail (Setaria faberi); test: Test G Post-Emergence Protocol; conditions: Setaria faberi, post-emergence, 312 h; for pest or weed control at 15.625 g/ha: 15.625 g ai/ha, evaluated after 13 days (100=total damage to plant; 0=no damage to plant), read-out: Foxtail, Giant damage rating; for pest or weed control at 62.5 g/ha: 62.5 g ai/ha, read-out: Foxtail, Giant damage rating (100=total damage to plant; 0=no damage to plant); for pest or weed control at 62.5 g/ha / pest or weed control at 250 g/ha: evaluated after 13 days; for pest or weed control at 250 g/ha: 250 g ai/ha, read-out: damage to plant, Foxtail, Giant (100=total damage to plant; 0=no damage to plant)
How it was run: as §2

[10] = tested on: ivy-leaved morning glory (Ipomoea hederacea); test: Test G Post-Emergence Protocol; conditions: Ipomoea, post-emergence, 312 h; for pest or weed control at 15.625 g/ha: 15.625 g ai/ha, evaluated after 13 days (100=total damage to plant; 0=no damage to plant), read-out: Morningglory, Ivy-leaved damage rating; for pest or weed control at 62.5 g/ha: 62.5 g ai/ha, read-out: Morningglory, Ivy-leaved damage rating (100=total damage to plant; 0=no damage to plant); for pest or weed control at 62.5 g/ha / pest or weed control at 250 g/ha: evaluated after 13 days; for pest or weed control at 250 g/ha: 250 g ai/ha, read-out: damage to plant, Morningglory, Ivy-leaved (100=total damage to plant; 0=no damage to plant)
How it was run: as §2

[11] = tested on: redroot pigweed (Amaranthus retroflexus); test: Test G Post-Emergence Protocol; conditions: Amaranthus retroflexus, post-emergence, 312 h; for pest or weed control at 15.625 g/ha: 15.625 g ai/ha, evaluated after 13 days (100=total damage to plant; 0=no damage to plant), read-out: Pigweed, Redroot damage rating; for pest or weed control at 62.5 g/ha: 62.5 g ai/ha, read-out: Pigweed, Redroot damage rating (100=total damage to plant; 0=no damage to plant); for pest or weed control at 62.5 g/ha / pest or weed control at 250 g/ha: evaluated after 13 days; for pest or weed control at 250 g/ha: 250 g ai/ha, read-out: damage to plant, Pigweed, Redroot (100=total damage to plant; 0=no damage to plant)
How it was run: as §2

[12] = tested on: velvetleaf (Abutilon theophrasti); test: Test G Post-Emergence Protocol; conditions: Abutilon theophrasti, post-emergence, 312 h; for pest or weed control at 15.625 g/ha: 15.625 g ai/ha, evaluated after 13 days (100=total damage to plant; 0=no damage to plant), read-out: Velvetleaf damage rating; for pest or weed control at 62.5 g/ha: 62.5 g ai/ha, read-out: Velvetleaf damage rating (100=total damage to plant; 0=no damage to plant); for pest or weed control at 62.5 g/ha / pest or weed control at 250 g/ha: evaluated after 13 days; for pest or weed control at 250 g/ha: 250 g ai/ha, read-out: damage to plant, Velvetleaf (100=total damage to plant; 0=no damage to plant)
How it was run: as §2

Row | Structure (SMILES) | pest or weed control at 15.625 g/ha [1] [%] | pest or weed control at 62.5 g/ha [1] [%] | pest or weed control at 250 g/ha [1] [%] | plant injury at 15.625 g/ha (corn (Zea mays) [2]) [%] | plant injury at 62.5 g/ha (corn (Zea mays) [2]) [%] | plant injury at 250 g/ha (corn (Zea mays) [2]) [%] | pest or weed control at 15.625 g/ha [3] [%] | pest or weed control at 62.5 g/ha [3] [%] | pest or weed control at 250 g/ha [3] [%] | pest or weed control at 15.625 g/ha [4] [%] | pest or weed control at 62.5 g/ha [4] [%] | pest or weed control at 250 g/ha [4] [%] | pest or weed control at 15.625 g/ha [5] [%] | pest or weed control at 62.5 g/ha [5] [%] | pest or weed control at 250 g/ha [5] [%] | pest or weed control at 15.625 g/ha [6] [%] | pest or weed control at 62.5 g/ha [6] [%] | pest or weed control at 250 g/ha [6] [%] | pest or weed control at 15.625 g/ha [7] [%] | pest or weed control at 62.5 g/ha [7] [%] | also measured
1 | CN1C[C@@H](c2ccc(C(F)(F)F)cc2)[C@H](C(=O)Nc2cccc3cn[nH]c23)C1=O (racemic) [Compound 1605] | 0 | 0 | 0 | 0 | 0 | 0 | 0 | 0 | 0 | 0 | 0 | 0 | 0 | 0 | 0 | 0 | 0 | 0 | 0 | 0 | pest or weed control at 250 g/ha [7]: 30%; plant injury at 15.625 g/ha (corn (Zea mays) [8]): 0%; plant injury at 62.5 g/ha (corn (Zea mays) [8]): 0%; plant injury at 250 g/ha (corn (Zea mays) [8]): 10%; pest or weed control at 15.625 g/ha [9]: 0%; pest or weed control at 62.5 g/ha [9]: 0%; pest or weed control at 250 g/ha [9]: 10%; pest or weed control at 15.625 g/ha [10]: 0%; pest or weed control at 62.5 g/ha [10]: 0%; pest or weed control at 250 g/ha [10]: 0%; pest or weed control at 15.625 g/ha [11]: 0%; pest or weed control at 62.5 g/ha [11]: 20%; pest or weed control at 250 g/ha [11]: 30%; pest or weed control at 15.625 g/ha [12]: 0%; pest or weed control at 62.5 g/ha [12]: 0%; pest or weed control at 250 g/ha [12]: 10%
2 | CN1C[C@@H](c2ccc(C(F)(F)F)cc2)[C@H](C(=O)Nc2ccncc2Cl)C1=O (racemic) [Compound 1608] | 0 | 0 | 0 | 0 | 0 | 0 | 0 | 0 | 0 | 0 | 0 | 0 | 0 | 10 | 20 | 0 | 0 | 0 | 0 | 10 | pest or weed control at 250 g/ha [7]: 10%; plant injury at 15.625 g/ha (corn (Zea mays) [8]): 0%; plant injury at 62.5 g/ha (corn (Zea mays) [8]): 10%; plant injury at 250 g/ha (corn (Zea mays) [8]): 20%; pest or weed control at 15.625 g/ha [9]: 0%; pest or weed control at 62.5 g/ha [9]: 10%; pest or weed control at 250 g/ha [9]: 60%; pest or weed control at 15.625 g/ha [10]: 40%; pest or weed control at 62.5 g/ha [10]: 30%; pest or weed control at 250 g/ha [10]: 40%; pest or weed control at 15.625 g/ha [11]: 0%; pest or weed control at 62.5 g/ha [11]: 10%; pest or weed control at 250 g/ha [11]: 20%; pest or weed control at 15.625 g/ha [12]: 0%; pest or weed control at 62.5 g/ha [12]: 0%; pest or weed control at 250 g/ha [12]: 0%
3 | CCc1nc(NC(=O)[C@@H]2C(=O)N(C)C[C@H]2c2ccc(C(F)(F)F)cc2)n[nH]1 (racemic) [Compound 1610] | 0 | 0 | 0 | 0 | 0 | 0 | 0 | 0 | 0 | 0 | 0 | 0 | 0 | 0 | 0 | 0 | 0 | 0 | 0 | 0 | pest or weed control at 250 g/ha [7]: 0%; plant injury at 15.625 g/ha (corn (Zea mays) [8]): 0%; plant injury at 62.5 g/ha (corn (Zea mays) [8]): 0%; plant injury at 250 g/ha (corn (Zea mays) [8]): 0%; pest or weed control at 15.625 g/ha [9]: 0%; pest or weed control at 62.5 g/ha [9]: 0%; pest or weed control at 250 g/ha [9]: 0%; pest or weed control at 15.625 g/ha [10]: 0%; pest or weed control at 62.5 g/ha [10]: 0%; pest or weed control at 250 g/ha [10]: 0%; pest or weed control at 15.625 g/ha [11]: 0%; pest or weed control at 62.5 g/ha [11]: 0%; pest or weed control at 250 g/ha [11]: 0%; pest or weed control at 15.625 g/ha [12]: 0%; pest or weed control at 62.5 g/ha [12]: 0%; pest or weed control at 250 g/ha [12]: 0%
